Laboratory results as given in a melting point compilation (Tetko et al.; mined from patent text by program, amines drawn as free bases though some values may be those of a salt).

Question: With COCCOCCOc1ccc(C2=N[C@@](C)(C(=O)O)CS2)c(O)c1 as the compound, how does the melting point read?
Answer: 82 to 83 °C

Question: For Cc1cc(-n2cccn2)c2cccc(OCc3c(Cl)ccc(S(=O)(=O)N4CCC[C@H]4C(=O)NCC4CCN(CCCO)CC4)c3Cl)c2n1, which melting point is on record?
Answer: 112 °C

Question: Which melting point does the source give for O=C1CCCc2ccc(OCCCCN3CCN(c4cccc5c4OCCCO5)CC3)nc2N1 here?
Answer: 200 to 201 °C

Question: For O=C(Nc1ccc(C2(O)CCN(C(=O)OCc3ccccc3)CC2)cc1)OCc1ccccc1, which melting point is on record?
Answer: 156 to 158 °C

Question: For COc1ccc2c(c1)CCC1CCN=C21 (stereo not given), which melting point is on record?
Answer: 102 to 104 °C

Question: With C=CCn1nc(C)c(C(=O)c2ccc(Cl)cc2Cl)c1OS(=O)(=O)c1ccc(C)cc1 as the compound, how does the melting point read?
Answer: 113 to 114 °C

Question: Which melting point does the source give for COc1ccccc1CCc1c(CO)ccc(OC)c1OC here?
Answer: 108 to 109 °C

Question: For COc1ccc(CN2C(=O)[C@@H](NC(=O)Cc3ccccc3)[C@H]2CO)c(OC)c1 (relative stereo), which melting point is on record?
Answer: 152 to 154 °C

Question: Which melting point does the source give for COC(=O)c1cc(Cl)sc1NC(C)=O here?
Answer: 110 °C

Question: For CCc1nc2c(N)nc3ccccc3c2n1CCCCNC(=O)C1CCCCC1, which melting point is on record?
Answer: 202 °C

Question: For COC(=O)C[C@H]1C[C@@H](C=Cc2ccccc2)OC(C)(C)O1 (relative stereo), which melting point is on record?
Answer: 84 to 86.5 °C

Question: For CNC(=S)NCCCSc1cncc(NC(N)=NCC(F)(F)F)n1, which melting point is on record?
Answer: 165 to 167 °C

Question: For COc1cc(CN2CCN(c3ccccc3F)CC2)ccc1OC(=O)N(C)C, which melting point is on record?
Answer: 130 to 133 °C

Question: For COC(=O)CC(C)(C)C(C)(C)S(=O)(=O)c1ccc(C)cc1, which melting point is on record?
Answer: 90 °C

Question: For CCCCn1c(C)c(C)cc(O)c1=O, which melting point is on record?
Answer: 112 to 116 °C

Question: With CC(C)(C)OC(=O)Nc1ccccc1O as the compound, how does the melting point read?
Answer: 145 °C

Question: For COc1ccc(Oc2nc(Nc3cccc(C(=O)O)c3)nc(Oc3ccccc3)n2)cc1, which melting point is on record?
Answer: 233 to 236 °C

Question: Which melting point does the source give for O=C(C=Cc1cncc(O)c1)NCCCN1CCN(C(c2ccccc2)c2ccccc2)CC1 here?
Answer: 189 to 191 °C

Question: With NC1=Nc2ccc(OC(F)(F)F)cc2CS1 as the compound, how does the melting point read?
Answer: 115 to 118 °C

Question: With O=C1CCC(N2Cc3c(OCc4ccc(CN5CCCOCC5)cc4)cccc3C2=O)C(=O)N1 (stereo not given) as the compound, how does the melting point read?
Answer: 119 to 121 °C

Question: With CC(C)n1nc(-c2ccc(=O)[nH]c2-c2ccccc2)ccc1=O as the compound, how does the melting point read?
Answer: 107 to 109 °C

Question: Which melting point does the source give for CCN(CC)CCOc1ccc(-c2sc3ccccc3c2C(=O)c2cc(C)cc(C)c2)cc1 here?
Answer: 138 to 142 °C

Question: For CCCCc1nc2cc(C(=O)OC)ccc2[nH]1, which melting point is on record?
Answer: 108 to 110 °C

Question: With N#Cc1ccc2c(c1)CCC=C2n1ccnc1 as the compound, how does the melting point read?
Answer: 152 to 153 °C

Question: For Cc1nn(C)c(Cl)c1C(=O)Nc1ccccc1, which melting point is on record?
Answer: 157 to 159 °C

Question: With CNCCCCN1CC[C@H](NC(=O)c2cc(Cl)c(N)cc2OC)[C@H](OC)C1 (relative stereo) as the compound, how does the melting point read?
Answer: 129 °C

Question: Which melting point does the source give for N#CCCNC(=O)c1cccc(Br)c1 here?
Answer: 100 to 101 °C

Question: For CCCCOC(=O)C(CCc1ccccc1)NC1CSC(c2ccsc2)CN(CC(=O)O)C1=O (stereo not given), which melting point is on record?
Answer: 156 °C

Question: Which melting point does the source give for CCC(C)N(C(=O)c1ccccc1C(N)=O)c1ccc(Cn2nnn(-c3ccc(C(F)(F)F)cc3)c2=O)cc1C (stereo not given) here?
Answer: 217 to 218 °C

Question: For COc1cc2c(cc1OC)N(C)C(=O)CN=C2c1cccc([N+](=O)[O-])c1, which melting point is on record?
Answer: 152 to 155 °C

Question: For Clc1ccc2c(NCCCCCCCCCNc3ncnc4cc(Cl)ccc34)ncnc2c1, which melting point is on record?
Answer: 159 to 162 °C

Question: Which melting point does the source give for O=C1c2ccccc2C(=O)N1Cc1cc(F)ccc1[N+](=O)[O-] here?
Answer: 198 to 200 °C

Question: For COc1cc(NS(=O)(=O)CCCCl)cc(OC)c1, which melting point is on record?
Answer: 68 to 71 °C

Question: Which melting point does the source give for COc1cc(Br)c2oc(-c3ccc(OC)c(C(F)(F)F)c3)nc2c1 here?
Answer: 183 to 185 °C

Question: Which melting point does the source give for Nc1c(Br)cc(-c2nc3ccccc3s2)cc1Br here?
Answer: 201 to 203 °C

Question: For COc1ccc2c(C(=O)C=[N+]=[N-])nn(Cc3ccc(Cl)c(Cl)c3)c(=O)c2c1, which melting point is on record?
Answer: 129 to 130 °C

Question: For COc1ccc(C(=O)Nc2ccccc2)cc1NCc1cccc(Cl)c1, which melting point is on record?
Answer: 203 to 205 °C

Question: Which melting point does the source give for CCCNC(=O)c1nc(CCl)n(-c2ccc(Cl)cc2C(=O)c2ccccc2Cl)n1 here?
Answer: 110 to 113 °C

Question: For O=P(O)(O)c1cccc(Br)c1, which melting point is on record?
Answer: 144 to 149 °C

Question: Which melting point does the source give for Cc1ccc(C2CCN(c3c(C)c(C)c4c(c3C)[C@@H](c3ccc(C)cc3)C(C)(C)O4)CC2)cc1 here?
Answer: 165 to 167 °C

Question: With CCS(=O)(=O)Nc1ccc2c(c1)S(=O)(=O)C=C(c1c(O)c3cc(F)ccc3n(CCC3CC3)c1=O)N2 as the compound, how does the melting point read?
Answer: 140 to 142 °C

Question: With COc1ccc(-c2cc(C(=O)O)n(C)n2)cc1 as the compound, how does the melting point read?
Answer: 190 to 193 °C

Question: For COC1CN(C(C)CC(C(=O)N(C)C)(c2ccccc2)c2ccccc2)CCC1NC(=O)c1cccc(C(F)(F)F)c1 (stereo not given), which melting point is on record?
Answer: 198 °C

Question: For O=C(O)c1cccc(-n2ccc(-c3ccc(OC(F)(F)F)cc3)n2)c1, which melting point is on record?
Answer: 191 to 194 °C

Question: Which melting point does the source give for CCc1cc(-c2[nH]c3ccccc3c2C)cc(CC)c1OC here?
Answer: 95.7 to 96.1 °C

Question: For ON=Cc1ccc(OCc2coc(-c3ccccc3)n2)cc1, which melting point is on record?
Answer: 184 to 186 °C

Question: With O=[N+]([O-])C=C(NCc1cccnc1)N1CCCCC1 as the compound, how does the melting point read?
Answer: 106 to 108 °C

Question: With Cn1nc(-c2cc(CBr)c(Cl)cc2F)c(Cl)c1C(F)(F)F as the compound, how does the melting point read?
Answer: 112 to 114 °C

Question: Which melting point does the source give for COc1ccc(CCNC(=O)OC(C)(C)C)cc1OC here?
Answer: 63 to 67 °C

Question: With COC(=O)C1(C(=O)OC)CCC(c2c(-c3ccccc3)n(C)c3ccccc23)CC1 as the compound, how does the melting point read?
Answer: 134 to 135 °C
